Source: patent US7666897B2, “Analogs of indole-3-carbinol metabolites as chemotherapeutic and chemopreventive agents” (SRI International, priority 2002, dated 2010)
Where two headings read alike, the source gives them in different places.

Assays:
MDA-MB-231 (ER−) = experiment: Growth inhibition assay (tetrazolium blue), MDA-MB-231 (ER−) breast cancer cells; format: cell-based, human; conditions: for IC50: no estrogen added
Protocol: (§1) Growth inhibition assays were conducted using DIM, LT, and some of the novel compounds of the invention on several breast cancer cell lines. The cell lines studied were MCF-7 (ER^+), MDA-MB-231 (ER^−), and a tamoxifen-resistant strain of MCF-7 (ER^+). The growth assays were conducted according to the method of Tiwari et al. (Tiwari, R. K., J Natl Cancer Inst 86:126-131, 1994). For growth Inhibition Assay, cells were grown in multi-well culture plates. Experiments were performed in quadruplicate. MCF-7 (ER^+) cells were grown in special medium containing 5% animal serum that had been treated to remove endogenous estrogens. After the plates were incubated at 37° C. for 24 hours, to each well was added test compound at various concentrations, with or without the estrogen 17β-estradiol (E2). The cells were then incubated for 7 days, with medium and test solutions replaced every other day. On Day 8, after the medium was removed and replaced with fresh medium without test solutions, the tetrazolium blue test was performed to determine the percentage of viable cells (viable cells convert the colorless tetrazolium to formazan, which is blue). At 4 hours after tetrazolium blue was added, the reaction was stopped and the formazan concentration was measured by detection of light absorbance at 575 nm in an enzyme linked immunosorbent assay (ELISA) plate reader. The percent growth inhibition was determined by dividing the ELISA results for samples containing test compounds by the results for control samples. […] (ER^−) cells were maintained and tested under the same conditions as described above, except that no estrogen was added.

PC-3 = experiment: Growth inhibition assay (MTT), PC-3 prostate cancer cells; format: cell-based; conditions: Day 7, MTT
Protocol: (§2) Assays were conducted on compound 46 (SR13654) to determine its growth inhibitory effect on three prostate cancer cell lines, LNCaP, DU-145 and PC-3. The methods were described briefly herein. LNCaP and PC-3 cells will be maintained in […] medium, and DU-145 cells in Eaglets minimal essential medium (MEM) medium supplemented with nonessential amino acids, 2 mM glutamine and 1 mM pyruvate. All media will contain 10% fetal bovine serum (FCS). To screen compounds for their effect on cell proliferation, cells are seeded in 96-well plates at 2000 cells/well in 200 μL of medium. After cells are allowed to attach for 24 h, test compound is added to each well in 10 μL aliquots and control wells receive vehicle only. Medium and test solutions are replaced every other day. On Day 7, viable cells are measured with the MTT assay, using the protocol provided by the manufacturer (Promega, Madison, Wis.).

DU-145 = experiment: Growth inhibition assay (MTT), DU-145 prostate cancer cells; format: cell-based; conditions: Day 7, MTT
Protocol: as §2

LNCaP = experiment: Growth inhibition assay (MTT), LNCaP prostate cancer cells; format: cell-based; conditions: Day 7, MTT
Protocol: as §2

[1] = test system: Tamoxifen-resistant MCF-7; experiment: Growth inhibition assay (tetrazolium blue), tamoxifen-resistant MCF-7 cells; format: cell-based
Protocol: as §1

[2] = test system: Ishikawa cells (endometrial carcinoma cells); experiment: Ishikawa assay (alkaline phosphatase induction), estrogenic and antiestrogenic activity; format: cell-based, human; conditions: AlkP induction, 72 hours; for Ishikawa Assay Anti-Estrogenic Activity at 10 μM: unit assumed
Protocol: Estrogenic and antiestrogenic activities were determined using the Ishikawa assay (Littlefield, B. A., Endocrinology 127: 2757-2762, 1990). The activities were measured at 10 μM concentrations of the test compounds. Human Ishikawa cells (endometrial carcinoma cells) are very sensitive to estrogens, and compounds with estrogenic activity induce alkaline phosphatase (AlkP) enzyme activity in these cells when administered at levels as low as 10^−12 M. Ishikawa cells were grown in growth medium supplemented with glutamine, sodium pyruvate, and 10% animal serum. At 24 hours before the experiment, the medium was replaced with medium free of phenol red and containing 5% animal serum that had been treated to remove endogenous estrogens. On Day 1, the cells were harvested and plated in fresh phenol red-free medium, and test solutions were added with or without the estrogen 17β-estradiol. After the treated cells were incubated for 72 hours, the AlkP assay was used to determine the estrogenic and antiestrogenic activity of the test compounds. Like the tetrazolium blue assay described above, this assay involves calorimetric detection using an ELISA plate reader, but here the indicator dye is yellow.

MCF-7 (ER+) = experiment: Growth inhibition assay (tetrazolium blue), MCF-7 (ER+) breast cancer cells; format: cell-based; conditions: for IC50: 7 days incubation, tetrazolium blue; for inhibition at 1 µM: MCF7
Protocol: as §1

[3] = test system: SKOV-3 human ovarian cancer xenografts; experiment: SKOV-3 human ovarian cancer xenografts in nude mice; format: in vivo, female Balb/c nude mice; conditions: 30 mg/kg orally daily from Day 0, SKOV-3 xenograft
Protocol: To start, female Balb/c nude mice were implanted subcutaneously (s.c.) with SKOV-3 cells in the flanks, using an inoculum of 5×10^6 cells in a medium-Matrigel mixture (1:1, v/v), and compound 74 (30 mg/kg) was orally administered daily via gavage from Day 0. Tumor volume and body weight were measured twice weekly.

SKOV-3 = experiment: Growth inhibition assay (MTT), SKOV-3 ovarian cancer cells; format: cell-based; conditions: Homo sapiens, SK-OV-3, 168 h; Day 7, MTT
Protocol: (§3) Assays were conducted on compound 74 (SR13668) to determine its growth inhibitory effect on two ovarian cancer cell lines, NIH-OVCAR-3 and SKOV-3. OVCAR-3 cells are routinely maintained in RPMI-1640 medium supplemented with 2 mM glutamine (GLN) and 10% fetal calf serum (FCS), and SKOV-3 cells in McCoy's 5A medium supplemented with 2 mM GLN and 10% FCS. Both cell lines are fed with fresh medium every other day and passaged every 6-7 days. To conduct the growth inhibition assay, cells from either cell line are seeded in 96-well plates at 2000 cells/well in 200 μL of medium. After cells are allowed to attach for 24 h, test compounds dissolved in dimethyl sulfoxide (DMSO) and further diluted with medium are added to each well in 10-μL aliquots. The final DMSO concentration is kept at 0.05%. Control wells receive vehicle only. Media and test solutions are replaced every other day. On Day 7, viable cells are measured with the MTT (tetrazolium blue) assay, using an MTT kit.

[4] = test system: MDA-MB-231 human carcinoma cells; experiment: Boyden Chamber Invasion Assay; format: cell-based; conditions: 5 μM, 16 h end-point
Protocol: MDA-MB-231 human carcinoma cells was used for this Boyden Chamber Invasion Assay (Meng et al. (2000) J. Mol. Med. 78, 155-165; Meng et al. (2000) Breast Cancer Res. Treat. 63, 147-152). Briefly, to each well of a 24-well Biocoat invasion chamber plate, 0.6 mL of appropriate medium containing 10% FCSH 6 μg/ml Fibronectin is added, followed by gentle placement of a CCI in each well. To each CCI is added freshly harvested cells suspended in 200 μL of medium containing either the test compound or vehicle alone. The preparations are incubated at 37° C. for 16 h, and then the CCI is removed from each well, fixed for 10 min with 1 ml of 3.7% paraformaldehyde in PBS, and stained for 10 min in 1 mL of Wright-Giemsa stain solution. The stained CCI is placed on a glass microscope slide and the upper surface cells are carefully removed by scraping with a cotton swab. The cells on the lower surface are counted in a bright field microscope. The inhibitory effect of a test compound is calculated by dividing the number of cells in a treated preparation by that of the vehicle control and expressed as a percentage.

[5] = test system: MCF-7 breast cancer xenografts; experiment: ER+ MCF-7 breast cancer xenografts in nude mice; format: in vivo, female Balb/c nude mice; conditions: oral gavage daily, MCF-7 xenograft
Protocol: To study the in vivo activity of novel compound 74 against estrogen-dependent breast cancer, the compound was administered to nude mice that had been implanted with […] MCF-7 breast cancer cells. To start the experiment, female Balb/c nude mice were implanted subcutaneously (s.c.) with estrogen pellets two days prior to inoculation of cancer cells, for stimulation of cell growth. MCF-7 cells were then implanted s.c. in the flanks, using an inoculum of 5×10^6 cells in a medium-Matrigel mixture (1:1, v/v). When the mean tumor volume reached approximately 100 mm^3, the test compound in 0.5% hydroxypropylcellulose in sterile saline solution (or vehicle alone for controls) was administered orally by gavage daily. There were 7 mice in the experimental and control groups. Mice were examined daily for tumor growth, and tumors and body weight were measured twice weekly. The tumor volume is 4/3πr1^2r2, where r1 and r2 are the short radius and long radius, respectively. On Day 27, all the mice were sacrificed, and the major organs examined by a pathologist.

[6] = test system: MDA-MB-231 human carcinoma cells; experiment: Parallel cell growth inhibition assay to the invasion study; format: cell-based; conditions: 16 h end-point
NIH-OVCAR-3 = experiment: Growth inhibition assay (MTT), NIH-OVCAR-3 ovarian cancer cells; format: cell-based; conditions: Homo sapiens, OVCAR-3, 168 h; Day 7, MTT
Protocol: as §3

[7] = test system: MDA-MB-231 human breast cancer xenografts; experiment: (ER−) MDA-MB-231 breast cancer xenografts in nude mice; format: in vivo, female Balb/c nude mice; conditions: 10, 30, and 100 mg/kg daily oral gavage, MDA-MB-231 xenograft
Protocol: As a further test of in vivo efficacy against estrogen-independent breast cancer, the novel compound 74 was administered to nude mice that had been implanted with (ER^−) MDA-MB-231 human breast cancer xenografts. To start, female Balb/c nude mice were implanted subcutaneously (s.c.) with MDA-MB-231 cells, using an inoculum of 5×10^6 cells in a medium-Matrigel mixture (1:1, v/v). When the mean tumor volume reached approximately 70 mm^3, compound was administered daily at three dose levels (10, 30, and 100 mg/kg) via oral gavage. The methods used in the study were essentially the similar to those described in Example 29 herein.

SMILES | MDA-MB-231 (ER−) % Growth Inhibition at 10 μM (MDA-MB-231 (ER−)) [%] | IC50 (MDA-MB-231 (ER−)) [nM] | IC50 [1] [nM] | Ishikawa Assay Estrogenic Activity at 10 μM [2] | Ishikawa Assay Anti-Estrogenic Activity at 10 μM [2] [%] | MCF-7 (ER+) % Growth Inhibition at 1 μM (MCF-7 (ER+)) [%] | IC50 (MCF-7 (ER+)) [nM] | inhibition at 10 µM (MDA-MB-231 (ER−); Homo sapiens, MDA-MB-231) [%] | IC50 (MDA-MB-231 (ER−); Homo sapiens, MDA-MB-231) [nM] | IC50 ([1]; Tamoxifen-resistant MCF7) [nM] | inhibition at 1 µM (MCF-7 (ER+); Homo sapiens) [%] | IC50 (MCF-7 (ER+); Homo sapiens, MCF7, 168 h) [nM] | other results
CCOC(=O)c1ccc2[nH]c(Cc3[nH]c4ccc(C(=O)OCC)cc4c3C)c(C)c2c1 [Compound 46, 5,5′-Dicarbethoxy-3,3′-dimethyl-2,2′-diindolylmethane] | 81 | 6900 | 460 | 0 | 94 | 100 | 31 | – | – | – | – | – | IC50 (PC-3): 200 nM; IC50 (DU-145): 480 nM; IC50 (LNCaP): 4700 nM
CCOC(=O)Oc1c2[nH]c3ccccc3c2cc2c1[nH]c1ccccc12 [Compound 58, 6-Ethoxycarbonyloxy-5,7-dihydro-indolo[2,3-b]carbazole] | – | – | – | 0 | 100 | – | – | 97 | 2100 | 56 | 100 | 18 | –
CCOC(=O)Oc1c2[nH]c3ccc(C(=O)OCC)cc3c2cc2c1[nH]c1ccc(C(=O)OCC)cc12 [Compound 63, 2,10-Dicarbethoxy-6-ethoxycarbonyloxy-5,7-dihydro-indolo[2,3-b]carbazole] | – | – | – | 0 | 100 | – | – | 94 | 2000 | 3000 | 66 | 1400 | –
CCOC(=O)c1ccc2[nH]c3c(OC)c4[nH]c5ccc(C(=O)OCC)cc5c4cc3c2c1 [Compound 74, 2,10-Dicarbethoxy-6-methoxy-5,7-dihydro-indolo[2,3-b]carbazole] | – | – | – | 0 | 80 | – | – | 69 | 7800 | 930 | 100 | 200 | body weights of the treated mice [3]: unaffected; tumor volume versus control mice ([3]; FIG. 3): significantly less than those in the control mice; IC50 (SKOV-3): 4000 nM; reduction in the invasive capacity of MDA-MB-231 cells [4]: 90%; body weights of the treated mice [5]: unaffected; tumor volume versus control mice ([5]; FIG. 1): less than half of those in the control mice; inhibition at 5 µM [6]: 22%; IC50 (NIH-OVCAR-3): 5100 nM; body weights of the treated mice [7]: unaffected; tumor volume versus control mice ([7]; FIG. 2): less than half of those in the control mice
c1ccc2c(Cc3c[nH]c4ccccc34)c[nH]c2c1 [DIM, 3,3′-diindolylmethane, reference compound] | 20 | 31000 | > 10000 | – | – | 3 | 5500 | – | – | – | – | – | –
c1ccc2c(Cc3[nH]c4ccccc4c3Cc3c[nH]c4ccccc34)c[nH]c2c1 [LT, 2-(indol-3-ylmethyl) 3,3′-diindolyl-methane, reference compound] | 34 | 13000 | 600 | 0 | 100 | 19 | 1800 | – | – | – | – | – | –
